Reference: PubChem BioAssay AID1259407 (Chemical Carcinogenesis Research Information System (CCRIS), 2018)
Active and inactive are the calls of the source. No rule for the calls is given here.

Test system: CCRIS mutagenicity, Ames/micronucleus/aberration tests
Experiment: CCRIS mutagenicity studies

Structure (SMILES): Cc1ccccc1C#N
- mutagenic call (Test System: AMES SALMONELLA TYPHIMURIUM, Strain/Indicator: TA97, Metabolic Activation: HAMSTER, LIVER, S-9, AROCLOR 1254 (10 OR 30%), Method: PREINCUBATION): inactive; negative
- mutagenic call (Test System: AMES SALMONELLA TYPHIMURIUM, Strain/Indicator: TA97, Metabolic Activation: NONE, Method: PREINCUBATION): inactive; negative
- mutagenic call (Test System: AMES SALMONELLA TYPHIMURIUM, Strain/Indicator: TA97, Metabolic Activation: RAT, LIVER, S-9, AROCLOR 1254 (10%), Method: PREINCUBATION): inactive; negative
- mutagenic call (Test System: AMES SALMONELLA TYPHIMURIUM, Strain/Indicator: TA97, Metabolic Activation: RAT, LIVER, S-9, AROCLOR 1254 (30%), Method: PREINCUBATION): inactive; negative
- mutagenic call (Test System: AMES SALMONELLA TYPHIMURIUM, Strain/Indicator: TA98, Metabolic Activation: HAMSTER, LIVER, S-9, AROCLOR 1254 (10 OR 30%), Method: PREINCUBATION): inactive; negative
- mutagenic call (Test System: AMES SALMONELLA TYPHIMURIUM, Strain/Indicator: TA98, Metabolic Activation: NONE, Method: PREINCUBATION): inactive; negative
- mutagenic call (Test System: AMES SALMONELLA TYPHIMURIUM, Strain/Indicator: TA98, Metabolic Activation: RAT, LIVER, S-9, AROCLOR 1254 (10 OR 30%), Method: PREINCUBATION): inactive; negative
- mutagenic call (Test System: AMES SALMONELLA TYPHIMURIUM, Strain/Indicator: TA100, Metabolic Activation: HAMSTER, LIVER, S-9, AROCLOR 1254 (10 OR 30%), Method: PREINCUBATION): inactive; negative
- mutagenic call (Test System: AMES SALMONELLA TYPHIMURIUM, Strain/Indicator: TA100, Metabolic Activation: NONE, Method: PREINCUBATION): inactive; negative
- mutagenic call (Test System: AMES SALMONELLA TYPHIMURIUM, Strain/Indicator: TA100, Metabolic Activation: RAT, LIVER, S-9, AROCLOR 1254 (10%), Method: PREINCUBATION): inactive; negative
- mutagenic call (Test System: AMES SALMONELLA TYPHIMURIUM, Strain/Indicator: TA100, Metabolic Activation: RAT, LIVER, S-9, AROCLOR 1254 (30%), Method: PREINCUBATION): inactive; negative
- mutagenic call (Test System: AMES SALMONELLA TYPHIMURIUM, Strain/Indicator: TA1535, Metabolic Activation: HAMSTER, LIVER, S-9, AROCLOR 1254 (10 OR 30%), Method: PREINCUBATION): inactive; negative
- mutagenic call (Test System: AMES SALMONELLA TYPHIMURIUM, Strain/Indicator: TA1535, Metabolic Activation: NONE, Method: PREINCUBATION): inactive; negative
- mutagenic call (Test System: AMES SALMONELLA TYPHIMURIUM, Strain/Indicator: TA1535, Metabolic Activation: RAT, LIVER, S-9, AROCLOR 1254 (10%), Method: PREINCUBATION): inactive; negative
- mutagenic call (Test System: AMES SALMONELLA TYPHIMURIUM, Strain/Indicator: TA1535, Metabolic Activation: RAT, LIVER, S-9, AROCLOR 1254 (30%), Method: PREINCUBATION): inactive; negative
- mutagenic call (Test System: MOUSE LYMPHOMA, Strain/Indicator: L5178Y (TK+/TK-), Metabolic Activation: RAT, LIVER, S-9, AROCLOR 1254, Method: SUSPENSION/PLATE): active; positive. reevaluation of results: positive
- mutagenic call (Test System: Mouse lymphoma, Strain/Indicator: L5178Y (tk+/tk-), Metabolic Activation: None, Method: Suspension/plate): inactive; negative
